Results on two compounds are retold here after US12391653B2, “Salt form and crystal form of mutant IDH1 inhibitor and preparation method therefor” (KPC PHARMACEUTICALS, INC, priority 2019, dated 2025).

One data set deals with IDH1 (R132H) (Homo sapiens, UniProt O75874, R132H). The data set can be described thus: IDH1 enzyme activity test in vitro (IDH1 R132H). Type of data set: biochemical. The protocol: (§1) IDH1 mutant catalyzes the NADPH-dependent reduction of α-KG (α-ketoglutaric acid) to 2-HG (2-hydroxyglutaric acid), and the consumed NADPH can be read out by fluorescence.
Chain of IDH1 (R132H) (O75874 whole entry R132H): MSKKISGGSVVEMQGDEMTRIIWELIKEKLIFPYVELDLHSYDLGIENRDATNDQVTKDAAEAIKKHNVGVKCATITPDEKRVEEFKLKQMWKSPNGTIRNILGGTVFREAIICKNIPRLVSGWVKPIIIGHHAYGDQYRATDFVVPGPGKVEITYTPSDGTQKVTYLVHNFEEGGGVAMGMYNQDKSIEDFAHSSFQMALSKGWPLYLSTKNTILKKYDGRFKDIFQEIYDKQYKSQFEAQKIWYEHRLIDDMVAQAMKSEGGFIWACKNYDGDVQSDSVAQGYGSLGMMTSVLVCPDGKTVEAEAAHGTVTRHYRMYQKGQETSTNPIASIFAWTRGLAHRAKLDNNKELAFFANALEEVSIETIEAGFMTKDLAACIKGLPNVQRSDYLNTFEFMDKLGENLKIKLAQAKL
(§2) Basic reaction buffer: 50 mM KH2PO4, pH 7.5, 10 mM […], 10% glycerol, 150 mM NaCl, 0.05% BSA (bovine serum albumin), 2 mM b-ME (2-mercaptoethanol), 0.003% Brij35 (oxyethylene lauryl ether)
(§3) Substrates and cCofactors:
(§4) 1.33× enzyme (no control wells), buffer and NADP or NADPH (control wells) were added to the wells of a reaction plate. The compounds to be tested were dissolved in 100% DMSO, then added to the enzyme mixture (Echo550, nanoliter level) and incubated for 60 min after brief centrifugation. A mixture of 4× substrate and cofactor was added to start the reaction, briefly centrifuged, shaken, and incubated at room temperature for 45 min. A mixture of 3× lipoamide dehydrogenase and resazurin was prepared, added to the reaction solution to test the amount of the generated or remaining NADPH, incubated at room temperature for 10 min after simple centrifugation, and measured using a multifunctional microplate reader Envision (Ex/Em±535/590 nm).

In the next data set the target is IDH1 (R132C) (Homo sapiens, UniProt O75874, R132C). The data set can be described thus: IDH1 enzyme activity test in vitro (IDH1 R132C). The format is biochemical. As to the method: as §1, §2, §3, §4
Chain of IDH1 (R132C) (O75874 whole entry R132C): as the sequence (O75874 whole entry R132H) above, with H132C counted along it
Another data set deals with IDH1 wt (wild type) (Homo sapiens, UniProt O75874). Put plainly: IDH1 enzyme activity test in vitro (IDH1 wild type). Type of data set: biochemical. As to the method:
as §1, §2, §3
IDH1 wt (wild type): 65 μM isocitrate ±50 μM NADP
as §4

The next data set concerns the target T1, U87MG IDH1-R132H (Homo sapiens, UniProt O75874, R132H).
T1 construct: expressed in transfected cells; host or cells: U87MG
Put plainly: IDH1 cytological activity test, 2HG content in cell culture supernatant by LC-MS. The format is cell-based. As to the method:
In this study, after co-incubating the compound with IDH1 mutant cell lines, the 2HG content in the cell culture supernatant was detected by LC-MS to determine the inhibitory activity of the compound on IDH1 mutants. IDH1 catalyzes the reduction of isocitrate to α-ketoglutaric acid (α-KG) in vivo, while IDH1 mutants further catalyze the reduction of α-KG to 2-hydroxyglutaric acid (2HG).
U87MG-IDH1-R132H cell line is a stable transfected cell line that can stably express IDH1-R132H mutant by transfecting U87MG cells with IDH1-R132H, and HT1080 cell line contains endogenous IDH1-R132C mutant.
The experimental process is as follows:
1) The compound was 3-fold serially diluted with DMSO and added to a cell culture plate, with a total of 10 concentrations, each concentration in duplicate. Negative control wells contained DMSO only, and positive control wells contained BAY1436032 at a final concentration of 5 μM. The final concentration of DMSO in all wells was 0.5%.
2) The IDH1 mutant cell line was seeded into the compound-containing cell culture plate at a density of 40,000 cells/well. Cells were co-incubated with compounds for 3 days in a 37° C., 5% CO2 incubator.
3) After 3 days, 10 μl of cell culture supernatant was taken, diluted 21 times with 200 μl of ddH2O to 210 μl and mixed well. […]

A short description of data set [1]: Pharmacokinetic evaluation in mice. On the set-up: species or system CD-1 mice. The note with it: mouse, in vivo. The protocol: The pharmacokinetic parameters of the compound represented by formula (I) were detected in mice.
1) Experimental drug: compound represented by formula (I);
2) Experimental animals: 8 male CD-1 mice aged 7-10 weeks, divided into 2 groups, 4 mice in each group;
3) Drug preparation: for the tail vein injection group, an appropriate amount of the drug was weighed out and dissolved in a mixed solvent of DMSO: 20% hydroxypropyl beta-cyclodextrin (HPbCD)±10:90 to prepare a solution of 0.5 mg/mL; for the gavage administration group, an appropriate amount of the drug was weighed out and dissolved in a mixed solvent of DMSO: polyoxyethylene castor oil EL (Cremophor EL): 5% sulfobutylcyclodextrin (Captisol)±5:10:85 to prepare into a suspension.
Animals in group 1 were given a single dose of 1 mg/kg drug at a concentration of 0.5 mg/mL via tail vein injection, and animals in group 2 were given the compound at a dose of 20 mg/kg at a concentration of 2 mg/mL by gavage. Animals were cross-collected for plasma samples at 0.0833 (the tail vein injection group only), 0.25, 0.5, 1, 2, 4, 6, 8 and 24 h after administration. The drug concentration in the plasma samples was determined by LC-MS/MS method, and the kinetic parameters of the tested drugs were obtained in Table 11: […]

Data set [2] can be described thus: Hygroscopicity study by dynamic vapor sorption (DVS). As to conditions: 25° C. and 80% RH. Type of data set: physicochemical. The protocol: Dynamic Vapor Sorption (DVS) Method of the Present Disclosure
Instrument model: SMS DVS intrinsic dynamic moisture adsorption instrument
Test conditions: 10 mg of the sample was weighed out and placed in a DVS sample tray for testing.
The detailed DVS parameters were as follows:
RH (%) test gradient range: 0%-95%-0%
The hygroscopicity evaluation is classified as follows:
SMS DVS intrinsic Dynamic Vapor Sorption Instrument

Data set [3] can be described thus: Solid stability test (crystalline form by XRPD). The format is physicochemical. The protocol:
According to the “Guidelines for Stability Test of Raw Materials and Preparations” (General Principles 9001 of Part Four of Chinese Pharmacopoeia 2015 Edition), crystalline form E of the compound represented by formula (I) was investigated for stability at high temperature (60° C., open), high humidity (room temperature/relative humidity 92.5%, open) and strong light (5000 lx, closed).
About 10 mg of compound represented by formula (I) was accurately weighed out, placed in a dry and clean glass bottle, spread out into a thin layer and covered with aluminum foil with small holes under the influence factor test conditions (60° C., 92.5% RH) and accelerated conditions (40° C./75% RH and 60° C./75% RH). The samples placed under the condition of light (visible light 1200000 Lux, ultraviolet 200 W) were in transparent glass bottles, with one group fully exposed and the other fully packaged with aluminum foil. Samples in duplicate were placed under each condition at each time point, and the samples for XRPD detection were placed separately. Samples placed under different conditions were sampled for XRPD detection at the planned test end point, and the test results were compared with the initial test results at Day 0.

Data set [4] in a line: Solid stability test (crystalline form by XRPD). Type of data set: physicochemical. The note with it: Light (total illuminance = 1.2 × 10^6 Lux, Near UV = 200 w · hr/m^2, open).

T1 sequence (O75874 whole entry R132H): as the sequence (O75874 whole entry R132H) above
Chain of IDH1 wt (wild type) (O75874 whole entry): as the sequence (O75874 whole entry R132H) above, with H132R counted along it

`O=C(O)CCc1ccc2c(c1)nc(Nc1ccc(OC(F)(F)F)cc1)n2[C@@H]1CCCc2ccccc21` [Compound represented by formula (I)]: at IDH1 (R132H), the “inhibitory effect on mutant IDH1R132H at the enzymatic level” value was “good inhibitory effect”. In addition, the “inhibitory effect on mutant IDH1R132C at the enzymatic level” value on IDH1 (R132C) is listed as “good inhibitory effect”. For the same compound, the “inhibitory effect on wild-type IDH protein” value against IDH1 wt (wild type) is reported as “no inhibitory effect”. Further, the “2-HG inhibitory effect on U87MG glioma cells with IDH1R132H mutation” value at U87MG IDH1-R132H is reported as “good 2-HG inhibitory effect”. Also, at U87MG IDH1-R132H (2-HG inhibition, cells co-incubated with compound for 3 days), the IC50 (commonly the point on the concentration scale where inhibition reaches its midpoint) came out at 38.2 nM. For the same compound, the “pharmacokinetic properties in mice” value in data set [1] is reported as “good pharmacokinetic properties”.

As to `O=C(O)CCc1ccc2c(c1)nc(Nc1ccc(OC(F)(F)F)cc1)n2[C@@H]1CCCc2ccccc21`, in data set [2], the Hygroscopic classification entry is listed as “non-hygroscopic”. In data set [2], the “hygroscopic weight gain ΔW” value was 0.09%. Besides, the Crystalline form entry was “Crystalline form B” in data set [3] (0 days (initial)); “Crystalline form B” in data set [3] (25° C./92.5% RH, open, 5 days); “Crystalline form B” in data set [3] (25° C./92.5% RH, open, 10 days); “Crystalline form B” in data set [3] (40° C./75% RH, open, 1 month); “Crystalline form B” in data set [3] (40° C./75% RH, open, 2 months); “Crystalline form B” in data set [3] (40° C./75% RH, open, 3 months). Further, the Crystalline form entry in data set [3] (60° C., open, 5 days) is “Crystalline form B”; in data set [3] (60° C., open, 10 days), “Crystalline form B”; in data set [3] (60° C./75% RH, open, 1 month), “Crystalline form B”; in data set [3] (60° C./75% RH, open, 2 months), “Crystalline form B”; in data set [4] (5 days), “Crystalline form B”; in data set [4] (10 days) it was “Crystalline form B”.
